Results as given in US4148896A, “Antidepressant combination” (E. I. Du Pont de Nemours and Company, priority 1978, dated 1979).
Read-outs that look alike come from different tables or passages of the source.

Columns and labels:
[1] = tested on: tryptamine-induced stereotypies and hind limb paralysis; experiment: Tryptamine potentiation test; type: in vivo, mice; details: oral
Method: […] […] (60 Mg/kg of tryptamine alone causes this syndrome but it lasts for less than a minute, usually only a few seconds.) The data were analyzed quantally and ED50's calculated.

mouse brain MAO [2] = molecular target: T1, mouse brain MAO (Mus musculus, UniProt Q64133); details: for % INHIBITION: substrate 5 HT
T1 sequence (Q64133 1-526): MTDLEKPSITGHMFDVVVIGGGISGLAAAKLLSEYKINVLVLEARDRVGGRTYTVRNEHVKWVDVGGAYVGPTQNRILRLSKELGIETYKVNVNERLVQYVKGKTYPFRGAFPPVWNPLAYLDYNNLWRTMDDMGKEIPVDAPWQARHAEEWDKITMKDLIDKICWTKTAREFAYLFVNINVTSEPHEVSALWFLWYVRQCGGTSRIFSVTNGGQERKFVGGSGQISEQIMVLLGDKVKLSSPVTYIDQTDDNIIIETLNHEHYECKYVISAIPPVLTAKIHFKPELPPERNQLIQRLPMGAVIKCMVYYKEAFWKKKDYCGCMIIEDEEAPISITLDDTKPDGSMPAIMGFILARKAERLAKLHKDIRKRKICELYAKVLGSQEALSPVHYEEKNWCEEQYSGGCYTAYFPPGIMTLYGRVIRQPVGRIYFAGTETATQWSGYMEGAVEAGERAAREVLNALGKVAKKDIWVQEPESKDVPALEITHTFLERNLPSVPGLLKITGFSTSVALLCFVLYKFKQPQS

in vivo = details: mouse, po
mouse brain MAO [3] = molecular target: T1, mouse brain MAO; experiment: biochemical
[4] = tested on: tetrabenazine-induced sedation; experiment: Mouse antidepressant (antitetrabenazine) test: prevention of tetrabenazine-induced ptosis and loss of exploratory activity; details: for ED50: Mus musculus, po; for No. of Mice Blocked, EXPLORATORY ACTIVITY / No. of Mice Blocked, PTOSIS: 4 h after molindone
[5] = 1 mg/kg oral (free base), 1 h, N=10
[6] = 1 mg/kg oral (free base), 2 h, N=10
[7] = 1 mg/kg oral (free base), 4 h, N=10
[8] = 3 mg/kg oral (free base), 1 h, N=10
[9] = 3 mg/kg oral (free base), 2 h, N=10
[10] = 3 mg/kg oral (free base), 4 h, N=10
[11] = 9 mg/kg oral (free base), 1 h, N=10
[12] = 9 mg/kg oral (free base), 2 h, N=10
[13] = 9 mg/kg oral (free base), 4 h, N=10
[14] = 13 mg/kg oral (free base), 1 h, N=20
[15] = 13 mg/kg oral (free base), 2 h, N=20
[16] = 13 mg/kg oral (free base), 3 h, N=20
[17] = 13 mg/kg oral (free base), 4 h, N=20
[18] = 13 mg/kg oral (free base), 6 h, N=20
[19] = 13 mg/kg oral (free base), 24 h, N=20
[20] = 27 mg/kg oral (free base), 1 h, N=10
[21] = 27 mg/kg oral (free base), 2 h, N=10
[22] = 27 mg/kg oral (free base), 4 h, N=10
[23] = 81 mg/kg oral (free base), 1 h, N=10
[24] = 81 mg/kg oral (free base), 2 h, N=10
[25] = 81 mg/kg oral (free base), 4 h, N=10
[26] = molindone 1.5 mg/kg oral alone, N=20
[27] = molindone 4.5 mg/kg oral alone, N=20
[28] = molindone 13.5 mg/kg oral alone, N=20
[29] = molindone 40.5 mg/kg oral alone, N=20
[30] = molindone alone, oral, 4 h, free base basis, N=20 (Table 2)

CCc1c(C)[nH]c2c1C(=O)C(CN1CCOCC1)CC2 (centres unmarked) [Molindone, 3-ethyl-6,7-dihydro-2-methyl-5-(morpholinomethyl)indol-4-(5H)-one]
peak time, hind limb paralysis ([1]; tryptamine potentiation): 4 h | Effect on the action of tryptamine ([1]; at higher doses the potentiation disappears): potentiates the action of tryptamine in a dose-related manner | MAO inhibition (in words) (mouse brain MAO [2]; at the high concentration of 1×10^-3 M): virtually inactive | % INHIBITION (mouse brain MAO [2]; final conc. 10^-3 m/l): 14% | % INHIBITION (mouse brain MAO [2]; final conc. 10^-4 m/l): 1% | % INHIBITION (mouse brain MAO [2]; final conc. 10^-5 m/l): 1% | % INHIBITION (mouse brain MAO [2]; final conc. 10^-6 m/l): 0% | LD50 at 24 h (in vivo): 440 mg/kg | IC50 (mouse brain MAO [3]): > 1000 µM | NUMBER OF MICE BLOCKED, EXPLORATORY ACTIVITY [4, 5]: 0 | NUMBER OF MICE BLOCKED, PTOSIS [4, 5]: 0 | NUMBER OF MICE BLOCKED, EXPLORATORY ACTIVITY [4, 6]: 0 | NUMBER OF MICE BLOCKED, PTOSIS [4, 6]: 0 | NUMBER OF MICE BLOCKED, EXPLORATORY ACTIVITY [4, 7]: 0 | NUMBER OF MICE BLOCKED, PTOSIS [4, 7]: 0 | NUMBER OF MICE BLOCKED, EXPLORATORY ACTIVITY [4, 8]: 0 | NUMBER OF MICE BLOCKED, PTOSIS [4, 8]: 0 | NUMBER OF MICE BLOCKED, EXPLORATORY ACTIVITY [4, 9]: 0 | NUMBER OF MICE BLOCKED, PTOSIS [4, 9]: 1 | NUMBER OF MICE BLOCKED, EXPLORATORY ACTIVITY [4, 10]: 0 | NUMBER OF MICE BLOCKED, PTOSIS [4, 10]: 0 | NUMBER OF MICE BLOCKED, EXPLORATORY ACTIVITY [4, 11]: 0 | NUMBER OF MICE BLOCKED, PTOSIS [4, 11]: 0 | NUMBER OF MICE BLOCKED, EXPLORATORY ACTIVITY [4, 12]: 3 | NUMBER OF MICE BLOCKED, PTOSIS [4, 12]: 5 | NUMBER OF MICE BLOCKED, EXPLORATORY ACTIVITY [4, 13]: 5 | NUMBER OF MICE BLOCKED, PTOSIS [4, 13]: 7 | NUMBER OF MICE BLOCKED, EXPLORATORY ACTIVITY [4, 14]: 0 | NUMBER OF MICE BLOCKED, PTOSIS [4, 14]: 0 | NUMBER OF MICE BLOCKED, EXPLORATORY ACTIVITY [4, 15]: 6 | NUMBER OF MICE BLOCKED, PTOSIS [4, 15]: 8 | NUMBER OF MICE BLOCKED, EXPLORATORY ACTIVITY [4, 16]: 16 | NUMBER OF MICE BLOCKED, PTOSIS [4, 16]: 19 | NUMBER OF MICE BLOCKED, EXPLORATORY ACTIVITY [4, 17]: 19 | NUMBER OF MICE BLOCKED, PTOSIS [4, 17]: 20 | NUMBER OF MICE BLOCKED, EXPLORATORY ACTIVITY [4, 18]: 20 | NUMBER OF MICE BLOCKED, PTOSIS [4, 18]: 20 | NUMBER OF MICE BLOCKED, EXPLORATORY ACTIVITY [4, 19]: 6 | NUMBER OF MICE BLOCKED, PTOSIS [4, 19]: 10 | NUMBER OF MICE BLOCKED, EXPLORATORY ACTIVITY [4, 20]: 0 | NUMBER OF MICE BLOCKED, PTOSIS [4, 20]: 0 | NUMBER OF MICE BLOCKED, EXPLORATORY ACTIVITY [4, 21]: 10 | NUMBER OF MICE BLOCKED, PTOSIS [4, 21]: 10 | NUMBER OF MICE BLOCKED, EXPLORATORY ACTIVITY [4, 22]: 10 | NUMBER OF MICE BLOCKED, PTOSIS [4, 22]: 10 | NUMBER OF MICE BLOCKED, EXPLORATORY ACTIVITY [4, 23]: 0 | NUMBER OF MICE BLOCKED, PTOSIS [4, 23]: 0 | NUMBER OF MICE BLOCKED, EXPLORATORY ACTIVITY [4, 24]: 10 | NUMBER OF MICE BLOCKED, PTOSIS [4, 24]: 10 | NUMBER OF MICE BLOCKED, EXPLORATORY ACTIVITY [4, 25]: 10 | NUMBER OF MICE BLOCKED, PTOSIS [4, 25]: 10 | ED50 ([4]; 1 h, read-out: ED50, EXPLORATORY ACTIVITY): > 81 mg/kg | ED50 ([4]; 1 h, read-out: ED50, PTOSIS): > 81 mg/kg | ED50 ([4]; 2 h, read-out: ED50, EXPLORATORY ACTIVITY): 11.2 mg/kg | ED50 ([4]; 2 h, read-out: ED50, PTOSIS): 8.5 mg/kg | ED50 ([4]; 4 h, read-out: ED50, EXPLORATORY ACTIVITY): 9 mg/kg | ED50 ([4]; 4 h, read-out: ED50, PTOSIS): 7.2 mg/kg | No. of Mice Blocked, EXPLORATORY ACTIVITY [4, 26]: 0 | No. of Mice Blocked, PTOSIS [4, 26]: 1 | No. of Mice Blocked, EXPLORATORY ACTIVITY [4, 27]: 2 | No. of Mice Blocked, PTOSIS [4, 27]: 5 | No. of Mice Blocked, EXPLORATORY ACTIVITY [4, 28]: 12 | No. of Mice Blocked, PTOSIS [4, 28]: 18 | No. of Mice Blocked, EXPLORATORY ACTIVITY [4, 29]: 20 | No. of Mice Blocked, PTOSIS [4, 29]: 20 | ED50, EXPLORATORY ACTIVITY, Molindone [4, 30]: 10.8 mg/kg | ED50, PTOSIS, Molindone [4, 30]: 6.4 mg/kg | Peak time (antitetrabenazine activity) ([4]; oral, mice): 4 to 6 h
